Laboratory results: ChEMBL document CHEMBL5579884, “Cellular, Structural Basis, and Recent Progress for Targeting Murine Double Minute X (MDMX) in Tumors” (J Med Chem, 2024)

Legend:
MKN-45 = experiment: Cytotoxicity against human MKN-45 cells assessed as reduction in cell growth incubated for 48 hrs by MTT assay; conditions: MKN-45, 48 h
SGC-7901 = experiment: Cytotoxicity against human SGC-7901 cells assessed as reduction in cell growth incubated for 48 hrs by MTT assay; conditions: SGC-7901, 48 h
[1] = system: KATO III stomach cancer cell line; experiment: Cytotoxicity against human KATO III stomach cancer cell line assessed as reduction in cell growth incubated for 48 hrs by MTT assay
Prostatic carcinoma cell = experiment: Cytotoxicity against human Prostatic carcinoma cell
NCI-N87 = experiment: Cytotoxicity against human NCI-N87 cells assessed as reduction in cell growth incubated for 48 hrs by MTT assay; conditions: NCI-N87, 48 h
MDA-MB-175-VII = experiment: cells; conditions: Homo sapiens
Description: Cytotoxicity against human MDA-MB-175-VII cells assessed as reduction in cell growth

HGC-27 = experiment: Cytotoxicity against human HGC-27 cells assessed as reduction in cell growth incubated for 48 hrs by MTT assay; conditions: HGC-27, 48 h
MCF7 [2] = experiment: Cytotoxicity against human MCF7 cells assessed as reduction in cell growth
Hs-578T = experiment: cells; conditions: Homo sapiens
Description: Cytotoxicity against human Hs-578T cells assessed as cell growth inhibition

ZR-75-1 = experiment: Cytotoxicity against human ZR-75-1 cells assessed as reduction in cell growth
BT-474 = experiment: Cytotoxicity against human BT-474 cells assessed as cell growth inhibition
BGC-823 = experiment: Cytotoxicity against human BGC-823 cells assessed as reduction in cell growth incubated for 48 hrs by MTT assay; conditions: BGC-823, 48 h
BT-549 = experiment: Cytotoxicity against human BT-549 cells assessed as cell growth inhibition
ZR-75-30 = experiment: Cytotoxicity against human ZR-75-30 cells assessed as reduction in cell growth
HCT-116 [3] = experiment: Antiproliferative activity against human HCT-116 cells assessed as reduction in cell growth by MTT assay
MCF7 [4] = experiment: Antiproliferative activity against human MCF7 cells assessed as reduction in cell growth
MDA-MB-435 = experiment: Antiproliferative activity against human MDA-MB-435 cells assessed as reduction in cell growth
LNCaP [5] = experiment: Antiproliferative activity against human LNCaP cells assessed as reduction in cell growth
LAPC4 = experiment: Antiproliferative activity against human LAPC4 cells assessed as reduction in cell growth
RKO = experiment: Antiproliferative activity against human RKO cells assessed as reduction in cell growth
SW480 = experiment: Antiproliferative activity against human SW480 cells assessed as reduction in cell growth
LNCaP C4-2 = experiment: Antiproliferative activity against human C4-2 cells assessed as reduction in cell growth
DU-145 [6] = experiment: Antiproliferative activity against human DU-145 cells assessed as reduction in cell growth
PC-3 [7] = experiment: Antiproliferative activity against human PC-3 cells assessed as reduction in cell growth
OCI-AML-3 = experiment: Antiproliferative activity against human OCI-AML-3 cells assessed as reduction in cell viability measured for 48 hrs by MTT assay; conditions: OCI-AML-3, 48 h
MCF7 [8] = experiment: Antiproliferative activity against human MCF7 cells assessed as reduction in cell viability measured for 48 hrs by MTT assay; conditions: MCF7, 48 h
[9] = target: T1, E3 ubiquitin-protein ligase Mdm2 (Homo sapiens, UniProt Q00987); experiment: Inhibition of MDM2 (unknown origin)
HCT-116 [10] = experiment: Antiproliferative activity against human HCT-116 cells assessed as reduction in cell viability measured for 48 hrs by MTT assay; conditions: HCT-116, 48 h
Protein Mdm4 [11] = target: T2, Protein Mdm4 (Homo sapiens, UniProt O15151); experiment: Inhibition of MDMX (unknown origin)
T2 sequence (O15151 whole entry): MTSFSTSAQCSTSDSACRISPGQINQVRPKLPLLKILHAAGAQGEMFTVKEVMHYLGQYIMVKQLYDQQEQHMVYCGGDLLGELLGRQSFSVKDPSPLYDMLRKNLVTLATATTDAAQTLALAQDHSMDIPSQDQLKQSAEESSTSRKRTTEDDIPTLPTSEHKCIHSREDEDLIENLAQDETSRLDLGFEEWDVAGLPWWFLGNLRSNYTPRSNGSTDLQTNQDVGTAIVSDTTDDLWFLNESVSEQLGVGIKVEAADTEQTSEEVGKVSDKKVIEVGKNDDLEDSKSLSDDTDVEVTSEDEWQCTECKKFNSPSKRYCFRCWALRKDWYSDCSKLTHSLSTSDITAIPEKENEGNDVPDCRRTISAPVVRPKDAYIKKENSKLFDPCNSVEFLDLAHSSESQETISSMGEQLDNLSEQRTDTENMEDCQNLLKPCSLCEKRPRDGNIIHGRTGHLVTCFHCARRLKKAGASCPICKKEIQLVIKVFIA

A549 = experiment: Antiproliferative activity against human A549 cells assessed as reduction in cell viability measured for 48 hrs by MTT assay; conditions: A549, 48 h
[12] = target: T1, E3 ubiquitin-protein ligase Mdm2; experiment: Binding affinity to MDM2 (unknown origin) assessed as dissociation constant
HCT-116 [13] = experiment: Antiproliferative activity against human HCT-116 cells assessed as reduction in cell viability incubated for 24 hrs by Celltiter-Glo assay; conditions: HCT-116, 24 h
U-87 MG = experiment: Antiproliferative activity against human U-87 MG cells assessed as reduction in cell growth incubated for 72 hrs by MTS assay
[14] = Antiproliferative activity against human U373 MG cells assessed as reduction in cell growth incubated for 72 hrs by MTS assay
MCF7 [15] = experiment: Antiproliferative activity against human MCF7 cells assessed as reduction in cell growth incubated for 72 hrs by MTS assay; conditions: MCF7, 72 h
[16] = Antiproliferative activity against human C20/A4 cells assessed as reduction in cell growth incubated for 72 hrs by MTS assay
T98G = experiment: Antiproliferative activity against human T98G cells assessed as reduction in cell growth incubated for 72 hrs by MTS assay
[17] = Cytotoxicity against human Triple-negative breast cancer cell; conditions: Breast carcinoma cell
Breast cancer cell line = experiment: Cytotoxicity against human Breast cancer cell line
[18] = Antiproliferative activity against human IMR-90 cells assessed as reduction in cell viability incubated for 24 hrs by Celltiter-Glo assay
DU-145 [19] = experiment: Antiproliferative activity against human DU-145 cells assessed as reduction in cell viability incubated for 24 hrs by Celltiter-Glo assay; conditions: DU-145, 24 h
LNCaP [20] = experiment: Antiproliferative activity against human LNCaP cells assessed as reduction in cell viability incubated for 24 hrs by Celltiter-Glo assay
PC-3 [21] = experiment: Antiproliferative activity against human PC-3 cells assessed as reduction in cell viability incubated for 24 hrs by Celltiter-Glo assay; conditions: PC-3, 24 h
[22] = Antiproliferative activity against human RWPE-1 cells assessed as reduction in cell viability incubated for 24 hrs by Celltiter-Glo assay
HCT-116 [23] = experiment: Antiproliferative activity against human HCT-116 cells assessed as reduction in cell growth
L02 = experiment: Antiproliferative activity against human L02 cells assessed as reduction in cell growth
SJSA-1 = experiment: Antiproliferative activity against human SJSA-1 cells assessed as reduction in cell growth
SH-SY5Y = experiment: Antiproliferative activity against human SH-SY5Y cells assessed as reduction in cell growth
[24] = Antiproliferative activity against human BEAS-2B cells assessed as reduction in cell growth
[25] = target: T1, E3 ubiquitin-protein ligase Mdm2; experiment: Binding affinity to MDM2 (unknown origin) assessed as inhibition constant
OCI-AML2 = experiment: Antiproliferative activity against human OCI-AML2 cells assessed as reduction in cell viability incubated for 24 hrs by Celltiter-Glo assay; conditions: OCI-AML2, 24 h
HL-60 = experiment: Antiproliferative activity against human HL-60 cells assessed as reduction in cell viability incubated for 24 hrs by Celltiter-Glo assay; conditions: HL-60, 24 h
MCF7 [26] = experiment: Antiproliferative activity against human MCF7 cells assessed as reduction in cell viability incubated for 24 hrs by Celltiter-Glo assay; conditions: MCF7, 24 h
Protein Mdm4 [27] = target: T2, Protein Mdm4; experiment: Binding affinity to MDMX (unknown origin) assessed as inhibition constant
[28] = target: T1, E3 ubiquitin-protein ligase Mdm2
Protein Mdm4 [29] = target: T2, Protein Mdm4

T1 sequence (Q00987 whole entry): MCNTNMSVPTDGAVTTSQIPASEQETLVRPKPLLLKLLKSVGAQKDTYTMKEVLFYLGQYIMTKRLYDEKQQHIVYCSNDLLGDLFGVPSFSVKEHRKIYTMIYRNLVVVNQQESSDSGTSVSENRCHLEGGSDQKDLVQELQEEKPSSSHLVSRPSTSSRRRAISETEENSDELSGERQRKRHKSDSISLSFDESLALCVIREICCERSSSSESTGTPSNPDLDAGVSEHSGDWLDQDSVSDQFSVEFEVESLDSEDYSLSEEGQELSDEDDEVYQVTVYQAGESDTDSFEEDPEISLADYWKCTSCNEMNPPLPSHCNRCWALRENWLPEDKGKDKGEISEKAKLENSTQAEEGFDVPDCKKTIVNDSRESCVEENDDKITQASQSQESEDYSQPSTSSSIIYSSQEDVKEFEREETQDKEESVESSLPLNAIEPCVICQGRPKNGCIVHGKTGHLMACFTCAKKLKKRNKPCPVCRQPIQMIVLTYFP

Compound: Cc1c2ccccc2c(CSC(=N)N)c2ccccc12
- IC50 (MKN-45): 1200 nM
- IC50 (SGC-7901): 1200 nM
- IC50 [1]: 1200 nM
- IC50 (Prostatic carcinoma cell): 1500 nM
- IC50 (NCI-N87): 1200 nM
- IC50 (MDA-MB-175-VII): 1500 nM
- IC50 (HGC-27): 1200 nM
- IC50 (MCF7 [2]): 1500 nM
- IC50 (Hs-578T): 1500 nM
- IC50 (ZR-75-1): 1500 nM
- IC50 (BT-474): 1500 nM
- IC50 (BGC-823): 1200 nM
- IC50 (BT-549): 1500 nM
- IC50 (ZR-75-30): 1500 nM

Compound: Cc1c(Cl)ccc2c(/C=C3\NC(=O)N(C(C(=O)NC(CO)CO)c4ccc(F)c(F)c4)C3=O)c[nH]c12 (stereo not given)
- IC50 (HCT-116 [3]): 3000 nM
- IC50 (MCF7 [4]): 3500 nM
- IC50 (MDA-MB-435): 25300 nM
- IC50 (LNCaP [5]): 1100 nM
- IC50 (LAPC4): 1200 nM
- IC50 (RKO): 3200 nM
- IC50 (SW480): > 50000 nM
- IC50 (LNCaP C4-2): 1700 nM
- IC50 (DU-145 [6]): 45500 nM
- IC50 (PC-3 [7]): 45300 nM

Compound: CC(C)C(=O)Nc1ccccc1SC(=O)C(C)C
- IC50 (OCI-AML-3): 18000 nM
- IC50 (MCF7 [8]): 18000 nM
- IC50 [9]: 13100 nM
- IC50 (HCT-116 [10]): 16000 nM
- IC50 (Protein Mdm4 [11]): 1500 nM
- IC50 (A549): > 30000 nM

Compound: C[C@@H](c1ccc(Cl)cc1Cl)n1cnc(-c2ccccc2)c1-c1c(C(=O)Nc2cc(C(=O)O)ccc2N2CCC(N3CCCOC3=O)CC2)[nH]c2cc(Cl)ccc12
- Kd [12]: < 0.1 nM

Compound: Cc1ccnc(NC(c2cccc(Cl)c2Cl)c2ccc3cccnc3c2O)c1 (stereo not given)
- IC50 (HCT-116 [13]): 600 nM

Compound: Cc1c(Cl)ccc2c(/C=C3\NC(=O)N(Cc4ccc(F)c(F)c4)C3=O)c[nH]c12
- IC50 (U-87 MG): 1400 nM
- IC50 [14]: 1000 nM
- IC50 (MCF7 [15]): 1900 nM
- IC50 at 72 h [16]: 4500 nM
- IC50 (T98G): > 10000 nM

Compound: Brc1c2ccccc2c(C[P+](c2ccccc2)(c2ccccc2)c2ccccc2)c2ccccc12
- IC50 [17]: 3700 nM
- IC50 (Breast cancer cell line): 3700 nM

Compound: C=C1C(=O)O[C@H]2C[C@H](C)[C@@]34C[C@]5(C(=O)OC6CC(C)=C([C@H](C)CCCOC(C)=O)[C@@H](O)C65)[C@@H](C(C)=C3C[C@H]12)C4OC(C)=O (stereo not given in full)
- IC50 at 24 h [18]: > 50000 nM
- IC50 (DU-145 [19]): 4000 nM
- IC50 (LNCaP [20]): 1700 nM
- IC50 (PC-3 [21]): 1300 nM

Compound: COC(C)(C)CCC[C@](C)(O)[C@H]1CC[C@]2(C)[C@@H]1[C@H](O)C[C@@H]1[C@@]3(C)CC[C@H](O)C(C)(C)[C@@H]3CC[C@]12C
- IC50 (DU-145 [19]): 7600 nM
- IC50 (LNCaP [20]): 9600 nM
- IC50 (PC-3 [21]): 4400 nM
- IC50 at 24 h [22]: > 50000 nM

Compound: CN(C)C1CCN(C(=O)CCC(=O)C(c2ccc(Cl)cc2)C(C(=O)c2ccc(Cl)cc2)c2ccc(F)cc2Cl)CC1 (stereo not given)
- IC50 (HCT-116 [23]): 700 nM
- IC50 (L02): 15900 nM
- IC50 (SJSA-1): 600 nM
- IC50 (SH-SY5Y): 500 nM
- IC50 [24]: 18000 nM

Compound: COc1cccc2c1NCC2C(=O)N[C@H]1CCN(c2ccc(C)cc2)C1 (stereo not given in full)
- IC50 [9]: > 50000 nM

Compound: N#Cc1c2ccc(N)cc2nc2cc(N)ccc12
- IC50 (OCI-AML-3): 1300 nM
- IC50 (MCF7 [8]): 4300 nM
- IC50 (HCT-116 [10]): 2800 nM
- IC50 (A549): 5300 nM

Compound: O=C(CCC(=O)N1CCNCC1)C(c1ccc(Cl)cc1)C(C(=O)c1ccc(Cl)cc1)c1ccc(F)cc1Cl (stereo not given)
- IC50 (HCT-116 [23]): 700 nM
- IC50 (L02): 12600 nM
- IC50 (SJSA-1): 600 nM
- IC50 (SH-SY5Y): 700 nM
- IC50 [24]: 16300 nM

Compound: O=c1cc(-c2ccc(Oc3c(O)cc4oc(-c5ccc(O)cc5)cc(=O)c4c3O)cc2)oc2cc(O)cc(O)c12 [HINOKIFLAVONE]
- Ki [25]: 13000 nM
- IC50 (OCI-AML2): 4900 nM
- IC50 (HL-60): 11000 nM
- IC50 (MCF7 [26]): 16300 nM
- IC50 (HCT-116 [13]): 14200 nM
- Ki (Protein Mdm4 [27]): 12000 nM

Compound: Ac-ETFLDLWKLELEN-NH2
- Kd [28]: 149000 nM

Compound: Ac-ETFLDLWRLLLQN-NH2
- Kd (Protein Mdm4 [29]): 109000 nM
